Results published in patent US5563052A, “Process for producing L-tryptophan” (Kyowa Hakko Kogyo Co., LTD, priority 1988, dated 1996).
Where two headings read alike, the source gives them in different places.

Columns and labels:
Format in all cases: biochemical, Corynebacterium glutamicum
[1] = test system: anthranilate synthase (AS); assay: Feedback inhibition of anthranilate synthase (AS) activity by tryptophan; details: for IC50: read-out: Tryptophan concentration for 50% inhibiting the AS activity
Description: (§1) AS activities of Corynebacterium glutamicum ATCC 13032 and TA108 strains carrying pCtrp1 or pCtrp57 were determined according to the method of H. Hagino, et al. [Agric. Biol. Chem., 39, 323 (1975)], and their PRT activities were determined according to the method of J. Ito and C. Yanofsky [J. Biol. Chem., 97, 734 (1969)]. AS and PRT activities of TA108 strains carrying pCtrp1 or pCtrp57 were more than 10 times as high as those of ATCC 13032 strain. Tryptophan concentrations for 50% inhibiting the AS activities of […] strain, TA108 strain carrying pCtrp1 and TA108 strain carrying pCtrp57 were 0.002 mM, 0.008 mM and 4.0 mM, respectively, while tryptophan concentrations for 50% inhibiting the PRT activities of these three strains were 0.19 mM, 0.19 mM and 4.8 mM, respectively.

[2] = test system: anthranilate phosphoribosyl transferase (PRT); assay: Feedback inhibition of anthranilate phosphoribosyl transferase (PRT) activity by tryptophan; details: for IC50: read-out: Tryptophan concentration for 50% inhibiting the PRT activity
Description: as §1

[3] = test system: 3-deoxy-D-arabino-hepturosonate-7-phosphate synthase (DS); assay: Inhibition of DS activity by phenylalanine and tyrosine; details: DS in the ATCC 13032 transformant carrying pCGDS1
Description: DS activities of Corynebacterium glutamicum ATCC 13032 and the transformant carrying pCGDS1 were determined according to the method of P. R. Sprinavasan, D. B. Sprinson, et al. [J. Biol. Chem., 234, 716 (1959)].

Compound | Factor by which AS is less sensitive to tryptophan ([1]; AS encoded by pCtrp57 compared with AS encoded by pCtrp1) | IC50 ([1]; AS of TA108 strain carrying pCtrp1) [mM] | IC50 ([1]; AS of TA108 strain carrying pCtrp57) [mM] | Factor by which PRT is less sensitive to tryptophan ([2]; PRT encoded by pCtrp57 compared with PRT encoded by pCtrp1) | IC50 ([2]; PRT of TA108 strain carrying pCtrp1) [mM] | IC50 ([2]; PRT of TA108 strain carrying pCtrp57) [mM] | Inhibition of DS [3]
N[C@@H](Cc1c[nH]c2ccccc12)C(=O)O [tryptophan] | about 500 | 0.008 | 4 | about 25 | 0.19 | 4.8 | –
N[C@@H](Cc1ccccc1)C(=O)O [phenylalanine] | – | – | – | – | – | – | free from inhibition
N[C@@H](Cc1ccc(O)cc1)C(=O)O [tyrosine] | – | – | – | – | – | – | free from inhibition
